Results from patent US20250250269A1, “HETEROCYCLIC GLP-1 AGONISTS” (Gasherbrum Bio, Inc., priority 2022, published 2025).

Each compound was assayed against T1, GLP-1 Receptor (Homo sapiens, UniProt P43220) (assay: GLP-1R agonist cAMP stimulation assay (HEK293/GLP1R/CRE-LUC cells, Cisbio cAMP dynamic 2 kit)). Settings: HEK293/CRE-Luc cells stably expressing the GLP-1 Receptor, 30 min at 37° C.
T1 construct: host or cells: HEK293/CRE-Luc (HEK293/GLP1R/CRE-LUC)
Assay type: cell-based
Protocol: Activation of GLP-1 receptor is known to stimulate cyclic AMP (cAMP) production in cells which indicates primary coupling to the Gas subunit of the G protein heterotrimeric complex.
To optimize functional activity directed toward Gas coupling, a HEK293/CRE-Luc cell line developed by HDB stably expressing the GLP-1 Receptor was used. 200× concentration of compound working solutions were prepared (Agilent Technologies Bravo) with ½ log serial dilution in 384-well Echo LDV plate (Labcyte, Cat #LP-0200). […] 200× concentration of compound working solutions were moved to 384-well white low volume plate (Greiner, Cat #784075) using Labcyte ECHO550. 1×10^5 cells/mL HEK293/GLP1R/CRE-LUC (HD Biosciences) cell suspensions prepared with assay buffer [DPBS containing 0.5 mM IBMX (Sigma, Cat #15879) and 0.1% BSA (GENVIEW, Cat #FA016-100g)], 10 μL cell suspensions were added to each well of previous generated assay plate which already contains […] compound at 200×concentration using ThermoFisher Multidrop Combi (1000 cells/well). Seal the plate and incubate at 37° C. with 5% CO2 for 30 min.
After incubation the cAMP assay signal was generated using cAMP dynamic 2 Kit (Cisbio). 5 μL cAMP-d2 working solution was added to each well, followed with 5 μL Anti-cAMP antibody-cryptate working solution added to each well using ThermoFisher Multidrop Combi. Incubate at room temperature for 1 hour protected from light. Read the fluorescence at 665 and 615 nm with Reader PerkinElmer EnVision.

T1 sequence (P43220 24-463, species assumed): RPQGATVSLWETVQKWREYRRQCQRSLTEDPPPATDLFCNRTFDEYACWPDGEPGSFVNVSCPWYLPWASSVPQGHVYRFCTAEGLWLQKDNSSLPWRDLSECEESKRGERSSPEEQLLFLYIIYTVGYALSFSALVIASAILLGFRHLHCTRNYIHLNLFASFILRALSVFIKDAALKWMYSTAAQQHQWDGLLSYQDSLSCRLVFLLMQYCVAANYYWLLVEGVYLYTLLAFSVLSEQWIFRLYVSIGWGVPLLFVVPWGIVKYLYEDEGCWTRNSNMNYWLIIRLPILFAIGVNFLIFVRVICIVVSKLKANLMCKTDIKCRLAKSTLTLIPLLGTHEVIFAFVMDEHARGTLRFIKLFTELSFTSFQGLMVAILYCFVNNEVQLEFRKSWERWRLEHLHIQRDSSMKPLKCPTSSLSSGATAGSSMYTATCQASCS

| SMILES | EC50 [nM] |
| --- | --- |
| Fc1cc(Cl)ccc1COc1cccc([C@H]2CCN(Cc3nc4cc(-c5nnc(C(F)(F)F)[nH]5)ncc4n3C[C@@H]3CCO3)C[C@@H]2F)n1 (single isomer, unassigned) [Compound 58] | < 1 |
| Fc1cc(Cl)ccc1COc1cccc([C@@H]2CCN(Cc3nc4cc(-c5nnc(C(F)(F)F)[nH]5)ncc4n3C[C@@H]3CCO3)C[C@H]2F)n1 (single isomer, unassigned) [Compound 59] | < 1 |
| C[C@]1(c2ccc(Cl)cn2)Oc2cccc([C@H]3CCN(Cc4nc5cc(-c6nnc(C(F)(F)F)[nH]6)cnc5n4C[C@@H]4CCO4)C[C@@H]3F)c2O1 (single isomer, unassigned) [Compound 60] | < 1 |
| C[C@]1(c2ccc(Cl)cn2)Oc2cccc([C@@H]3CCN(Cc4nc5cc(-c6nnc(C(F)(F)F)[nH]6)cnc5n4C[C@@H]4CCO4)C[C@H]3F)c2O1 (single isomer, unassigned) [Compound 61] | < 1 |
| C[C@]1(c2ccc(Cl)cn2)Oc2cccc([C@H]3CCN(Cc4nc5cc(-c6nnc(C(F)(F)F)[nH]6)ncc5n4C[C@@H]4CCO4)C[C@@H]3F)c2O1 (single isomer, unassigned) [Compound 62] | < 1 |
| C[C@]1(c2ccc(Cl)cn2)Oc2cccc([C@@H]3CCN(Cc4nc5cc(-c6nnc(C(F)(F)F)[nH]6)ncc5n4C[C@@H]4CCO4)C[C@H]3F)c2O1 (single isomer, unassigned) [Compound 63] | < 1 |
| Fc1ccc(COc2cccc(C3CCN(Cc4nc5cc(-c6nnc(C(F)(F)F)[nH]6)ncc5n4C[C@@H]4CCO4)CC3)n2)c(F)c1 [Compound 1, 2-[(2,4-difluorophenyl)methoxy]-6-{1-[(3-{[(2S)-oxetan-2-yl]methyl}-6-[5-(trifluoromethyl)-4H-1,2,4-triazol-3-yl]-3H-imidazo[4,5-c]pyridin-2-yl)methyl]piperidin-4-yl}pyridine] | < 1 |
| COc1cc(Cl)ccc1COc1cccc(C2CCN(Cc3nc4cc(-c5nnc(C(F)(F)F)[nH]5)ncc4n3C[C@@H]3CCO3)CC2)n1 [Compound 2, (S)-2-((4-(6-((4-chloro-2-methoxybenzyl)oxy)pyridin-2-yl)piperidin-1-yl)methyl)-3-(oxetan-2-ylmethyl)-6-(5-(trifluoromethyl)-4H-1,2,4-triazol-3-yl)-3H-imidazo[4,5-c]pyridine] | < 1 |
| COc1c(F)ccc(COc2cccc(C3CCN(Cc4nc5cc(-c6nnc(C(F)(F)F)[nH]6)ncc5n4C[C@@H]4CCO4)CC3)n2)c1F [Compound 3, (S)-2-((4-(6-((2,4-difluoro-3-methoxybenzyl)oxy)pyridin-2-yl)piperidin-1-yl)methyl)-3-(oxetan-2-ylmethyl)-6-(5-(trifluoromethyl)-4H-1,2,4-triazol-3-yl)-3H-imidazo[4,5-c]pyridine] | < 1 |
| Cc1c(Cl)ccc(COc2cccc(C3CCN(Cc4nc5cc(-c6nnc(C(F)(F)F)[nH]6)ncc5n4C[C@@H]4CCO4)CC3)n2)c1F [Compound 4, 2-[(4-chloro-2-fluoro-3-methylphenyl)methoxy]-6-{1-[(3-{[(2S)-oxetan-2-yl]methyl}-6-[5-(trifluoromethyl)-4H-1,2,4-triazol-3-yl]-3H-imidazo[4,5-c]pyridin-2-yl)methyl]piperidin-4-yl}pyridine] | < 1 |
| Cc1c(F)ccc(COc2cccc(C3CCN(Cc4nc5cc(-c6nnc(C(F)(F)F)[nH]6)ncc5n4C[C@@H]4CCO4)CC3)n2)c1F [Compound 5, 2-[(2,4-difluoro-3-methylphenyl)methoxy]-6-{1-[(3-{[(2S)-oxetan-2-yl]methyl}-6-[5-(trifluoromethyl)-4H-1,2,4-triazol-3-yl]-3H-imidazo[4,5-c]pyridin-2-yl)methyl]piperidin-4-yl}pyridine] | < 1 |
| Fc1cc(Cl)cc(F)c1COc1cccc(C2CCN(Cc3nc4cc(-c5nnc(C(F)(F)F)[nH]5)ncc4n3C[C@@H]3CCO3)CC2)n1 [Compound 6, (S)-2-((4-(6-((4-chloro-2,6-difluorobenzyl)oxy)pyridin-2-yl)piperidin-1-yl)methyl)-3-(oxetan-2-ylmethyl)-6-(5-(trifluoromethyl)-4H-1,2,4-triazol-3-yl)-3H-imidazo[4,5-c]pyridine] | < 1 |
| FC(F)Oc1ccc(COc2cccc(C3CCN(Cc4nc5cc(-c6nnc(C(F)(F)F)[nH]6)ncc5n4C[C@@H]4CCO4)CC3)n2)cn1 [Compound 7, 2-{[6-(difluoromethoxy)pyridin-3-yl]methoxy}-6-{1-[(3-{[(2S)-oxetan-2-yl]methyl}-6-[5-(trifluoromethyl)-4H-1,2,4-triazol-3-yl]-3H-imidazo[4,5-c]pyridin-2-yl)methyl]piperidin-4-yl}pyridine] | < 1 |
| FC(F)Oc1cc(COc2cccc(C3CCN(Cc4nc5cc(-c6nnc(C(F)(F)F)[nH]6)ncc5n4C[C@@H]4CCO4)CC3)n2)ccn1 [Compound 8, (S)-2-((4-(6-((2-(difluoromethoxy)pyridin-4-yl)methoxy)pyridin-2-yl)piperidin-1-yl)methyl)-3-(oxetan-2-ylmethyl)-6-(5-(trifluoromethyl)-4H-1,2,4-triazol-3-yl)-3H-imidazo[4,5-c]pyridine] | < 1 |
| FC(F)Oc1cccc(COc2cccc(C3CCN(Cc4nc5cc(-c6nnc(C(F)(F)F)[nH]6)ncc5n4C[C@@H]4CCO4)CC3)n2)n1 [Compound 9, (S)-2-((4-(6-((6-(difluoromethoxy)pyridin-2-yl)methoxy)pyridin-2-yl)piperidin-1-yl)methyl)-3-(oxetan-2-ylmethyl)-6-(5-(trifluoromethyl)-4H-1,2,4-triazol-3-yl)-3H-imidazo[4,5-c]pyridine] | < 1 |
| FC(F)(F)Oc1cccc(COc2cccc(C3CCN(Cc4nc5cc(-c6nnc(C(F)(F)F)[nH]6)ncc5n4C[C@@H]4CCO4)CC3)n2)n1 [Compound 10, (S)-3-(oxetan-2-ylmethyl)-2-((4-(6-((6-(trifluoromethoxy)pyridin-2-yl)methoxy)pyridin-2-yl)piperidin-1-yl)methyl)-6-(5-(trifluoromethyl)-4H-1,2,4-triazol-3-yl)-3H-imidazo[4,5-c]pyridine] | < 1 |
| FC(F)(F)Oc1cccc(COc2cccc(C3CCN(Cc4nc5cc(-c6nnc(C(F)(F)F)[nH]6)ncc5n4C[C@@H]4CCO4)CC3)n2)c1 [Compound 11, (S)-3-(oxetan-2-ylmethyl)-2-((4-(6-((3-(trifluoromethoxy)benzyl)oxy)pyridin-2-yl)piperidin-1-yl)methyl)-6-(5-(trifluoromethyl)-4H-1,2,4-triazol-3-yl)-3H-imidazo[4,5-c]pyridine] | < 1 |
| Cc1ccc(COc2cccc(C3CCN(Cc4nc5cc(-c6nnc(C(F)(F)F)[nH]6)ncc5n4C[C@@H]4CCO4)CC3)n2)nc1OC(F)F [Compound 12, (S)-2-((4-(6-((6-(difluoromethoxy)-5-methylpyridin-2-yl)methoxy)pyridin-2-yl)piperidin-1-yl)methyl)-3-(oxetan-2-ylmethyl)-6-(5-(trifluoromethyl)-4H-1,2,4-triazol-3-yl)-3H-imidazo[4,5-c]pyridine] | < 1 |
| FC(F)Oc1nc(COc2cccc(C3CCN(Cc4nc5cc(-c6nnc(C(F)(F)F)[nH]6)ncc5n4C[C@@H]4CCO4)CC3)n2)ccc1Cl [Compound 13, (S)-2-((4-(6-((5-chloro-6-(difluoromethoxy)pyridin-2-yl)methoxy)pyridin-2-yl)piperidin-1-yl)methyl)-3-(oxetan-2-ylmethyl)-6-(5-(trifluoromethyl)-4H-1,2,4-triazol-3-yl)-3H-imidazo[4,5-c]pyridine] | < 1 |
| Fc1ccc(COc2cccc(C3CCN(Cc4nc5cc(-c6nnc(C(F)(F)F)[nH]6)ncc5n4C[C@@H]4CCO4)CC3)n2)nc1OC(F)F [Compound 14, (S)-2-((4-(6-((6-(difluoromethoxy)-5-fluoropyridin-2-yl)methoxy)pyridin-2-yl)piperidin-1-yl)methyl)-3-(oxetan-2-ylmethyl)-6-(5-(trifluoromethyl)-4H-1,2,4-triazol-3-yl)-3H-imidazo[4,5-c]pyridine] | < 1 |
| Cc1ccc(COc2cccc(C3CCN(Cc4nc5cc(-c6nnc(C(F)(F)F)[nH]6)ncc5n4C[C@@H]4CCO4)CC3)n2)c(OC(F)F)n1 [Compound 15, (S)-2-((4-(6-((2-(difluoromethoxy)-6-methylpyridin-3-yl)methoxy)pyridin-2-yl)piperidin-1-yl)methyl)-3-(oxetan-2-ylmethyl)-6-(5-(trifluoromethyl)-4H-1,2,4-triazol-3-yl)-3H-imidazo[4,5-c]pyridine] | < 1 |
| FC(F)(F)c1nnc(-c2cc3nc(CN4CCC(c5cccc(OCc6ccc(Cl)c7c6OCO7)n5)CC4)n(C[C@@H]4CCO4)c3cn2)[nH]1 [Compound 16, (S)-2-((4-(6-((7-chlorobenzo[d][1,3]dioxol-4-yl)methoxy)pyridin-2-yl)piperidin-1-yl)methyl)-3-(oxetan-2-ylmethyl)-6-(5-(trifluoromethyl)-4H-1,2,4-triazol-3-yl)-3H-imidazo[4,5-c]pyridine] | < 1 |
